Laboratory results reported in ChEMBL document CHEMBL1152106, “Derivatives of 5-amidine indole as inhibitors of thrombin catalytic activity” (Bioorg Med Chem Lett, 1996).

Key:
Prothrombin [1] = biological target: T1, Prothrombin (Homo sapiens, UniProt P00734); test: Compound was evaluated for inhibition of human alpha-thrombin catalytic activity.
Prothrombin [2] = biological target: T1, Prothrombin; test: Compound was evaluated for inhibition of human alpha-thrombin catalytic activity

Row | SMILES | IC50 (Prothrombin [1]) [µM] | Ki (Prothrombin [2]) [µM]
1 | N=C(N)c1ccc2[nH]c(-c3ccccc3)cc2c1 | 19 | –
2 | N=C(N)c1ccc2[nH]ccc2c1 | 22 | –
3 | Cc1c(-c2ccccc2)[nH]c2ccc(C(=N)N)cc12 | 66 | –
4 | NCc1ccc2[nH]c(C(Cc3ccccc3F)c3ccccc3F)cc2c1 (configuration not stated) | 59 | –
5 | N=C(N)c1ccc2[nH]c(Cc3ccccc3F)cc2c1 | 36 | –
6 | N=C(N)c1ccc2[nH]c(Cc3cccc(CCc4ccccc4)c3)cc2c1 | 2.4 | –
7 | N=C(N)c1ccc2[nH]c(Cc3cccc(Oc4ccccc4)c3)cc2c1 | 2 | –
8 | N=C(N)c1ccc2[nH]c3c(c2c1)CCCC3 | 20 | –
9 | N=C(N)c1ccc2[nH]c(-c3ccccc3O)cc2c1 | 38 | –
10 | N=C(N)c1ccc2[nH]c(C(Cc3ccccc3F)c3ccccc3F)cc2c1 (configuration not stated) | 15 | –
11 | N=C(N)c1ccc2[nH]c(Cc3ccccc3)cc2c1 | 1.4 | 0.26
